Patent US9539248B2, “Agent for ameliorating chronic obstructive pulmonary disease” (LTT BIO-PHARMA CO., LTD., priority 2012, dated 2017)

Legend:
[1] = tested on: porcine pancreatic elastase-induced COPD model; assay: Test Example 8: rectal administration in porcine pancreatic elastase-induced COPD model, lung damage (H&E, MLI, elastance, FEV0.05/FVC); type: in vivo, ICR mice; conditions: intrarectal once daily for 14 days, different doses (mg/kg) (FIG. 22 to 24)
Experimental: (§1) 100 μg of porcine pancreatic elastase per mouse was administered to 4 to 6 week old ICR mice once via the airway to induce damage in the lung. Furthermore, different doses (mg/kg) of mepenzolate were administered to the mice intrarectally once daily for 14 days. After administration, sections of the lung tissues were excised. Subsequently, the sections were subjected to H&E dyeing, MLI measurement, and elastance measurement performed by a similar method to that in Test Example 1.

[2] = tested on: pulmonary emphysema and altered lung function resulting from smoking; assay: Test Example 6: pulmonary emphysema and altered lung function resulting from smoking; type: in vivo, DBA/2 mice; conditions: cigarette smoke 6 weeks
Experimental: Three-times-a-day exposure to smoking and once-a-day coadministration of 38 μg/kg of mepenzolate were performed on 5 week old DBA/2 mice, 5 days a week (Monday to Friday) for 6 weeks. The mice were subjected to only smoking during the final week. The mice were subjected to smoking by the method described below. 15 to 20 mice were placed in a 45 L chamber and the chamber was connected to a cigarette smoke generator. Commercially available unfiltered cigarette that produced 28 mg of tar and 2.3 mg of nicotine were used. The mice were exposed to smoke of one cigarette over 35 minutes, which was repeated three times a day for five days a week. This was continued for 6 weeks. The mice were made to inhale the cigarette smoke 15 times over a 5-minute period. Mepenzolate was administered to the mice by inhalation. After smoking was completed, the mice were euthanized, sections of the lung tissues were prepared and dyed with H&E, and stained images were obtained by electron microscopy. The airspace size in the cells in the H&E stained images obtained above was measured as a mean linear intercept. Then, the total respiratory system elastance and the tissue elastance were measured by a similar method to that in Test Example 1.

[3] = tested on: methacholine-induced airway constriction; assay: Test Example 4: methacholine-induced airway constriction, airway administration; type: in vivo, ICR mice
Experimental: (§2) Lung function and airway resistance were measured by using a computer-controlled small animal ventilator (FlexiVent, SCIREQ Scientific Respiratory Equipment Inc.).
(§3) Increase in airway resistance induced by methacoline was measured. 4 to 6 week old ICR mice received 1 mg/mL methacoline by nebulization over 20 seconds and this was repeated five times. After administration of methacoline was completed, the airway resistance was measured by a snap shot technique. All the data were analyzed by using FlexiVent software.
Different doses (μg/kg) of mepenzolate were administered to the mice via the airway, and one hour after administration, the mice received five exposures to nebulized methacoline, and then, the airway resistance for each dose was measured.
Furthermore, mepenzolate was administered to the mice at a dose of 38 μg/kg. Then, the mice received five exposures to nebulized methacoline at 6 hours, 24 hours, and 48 hours after drug administration. The airway resistance for each time length was measured.

[4] = tested on: porcine pancreatic elastase pretreatment-induced pulmonary emphysema and altered lung function; assay: Test Example 2: porcine pancreatic elastase pretreatment-induced pulmonary emphysema and altered lung function; type: in vivo, ICR mice
Experimental: 100 μg of porcine pancreatic elastase per mouse and different doses of mepenzolate were dissolved in 30 μL of phosphate buffered saline (PBS) per mouse and this solution was injected into the airway of a mouse anesthetized with chloral hydrate by a micropipette.
as §2
A mouse was anesthetized with chloral hydrate, a tracheostomy was performed, and an 8 mm metal tube was inserted into the trachea. Ventilation was performed on the mouse with a volume of 8.7 mL/kg, a positive end-expiratory pressure of 2 to 3 cmH2O, and a respiratory rate of 150 times/min.
Total respiratory system elastance was measured by a snap shot technique and tissue elastance was measured by a forced oscillation technique.
After 4 to 6 week old ICR mice were used and treated with porcine pancreatic elastase by a similar method to that in Test Example 1, different doses (μg/kg) of mepenzolate were administered to these mice via the airway once daily from 14 days to 20 days after the treatment. Then, the mice were euthanized, sections of the lung tissues were prepared and dyed with H&E, and stained images were obtained by electron microscopy.
Subsequently, the airspace size in the cells in the obtained H&E stained images was measured as a mean linear intercept.
Then, on Day 21, the total respiratory system elastance and the tissue elastance were measured by a similar method to that in Test Example 1.

[5] = tested on: porcine pancreatic elastase-induced COPD model; assay: Test Example 8: rectal administration in porcine pancreatic elastase-induced COPD model, inflammatory cells in alveolar lavage fluid; type: in vivo, ICR mice; conditions: intrarectal once daily, lavage fluid collected 3 days later (FIG. 21)
Experimental: 100 μg of porcine pancreatic elastase per mouse was administered to 4 to 6 week old ICR mice once via the airway to induce damage in the lung. Different concentrations of mepenzolate were administered intrarectally once daily. The alveolar lavage fluid was collected 3 days later and the total cell count was counted. The neutrophil count was also counted by dyeing the cells by a Diff-Quick technique.

[6] = tested on: poor lung function induced by porcine pancreatic elastase; assay: Test Example 3: FEV0.05/FVC in poor lung function induced by porcine pancreatic elastase, compared with muscarinic antagonists; type: in vivo, ICR mice; conditions: 38 μg/kg by airway administration once daily for 11 days, measured on Day 14 (FIG. 10)
Experimental: Measurement of a ratio of forced expiratory volume (FEV) in the first 0.05 seconds to forced vital capacity (FVC) (FEV0.05/FVC) was performed by using the above-mentioned computer-controlled small animal ventilator connected to a negative pressure reservoir (SCIREQ Scientific Respiratory Equipment Inc.). FEV0.05/PVC was determined by using the FlexiVent software. As with Test Example 1, 4 to 6 week old ICR mice were treated with porcine pancreatic elastase. […] On Day 14, FEV0.05/FVC was measured by the method described in the above-mentioned “Measurement of FEV0.05/FVC.”

[7] = tested on: porcine pancreatic elastase-induced inflammation; assay: Test Example 5: porcine pancreatic elastase-induced inflammation (BALF cell counts and cytokines); type: in vivo, ICR mice
Experimental: Different doses of mepenzolate were administered to 4 to 6 week old ICR mice once via the airway. 100 μg of porcine pancreatic elastase per mouse was administered one hour after administration of mepenzolate. Bronchoalveolar lavage fluid (BALF) was collected from the lung 24 hours after administration of porcine pancreatic elastase and a total cell count and a neutrophil count were measured. Furthermore, the total number of TNF-α, MIP-2, MCP-1, or KC in the bronchoalveolar lavage fluid when 38 μg/kg of mepenzolate was administered via the airway was measured by an ELISA method.

[8] = tested on: porcine pancreatic elastase-induced pulmonary emphysema and altered lung function; assay: Test Example 7: oral administration in porcine pancreatic elastase-induced pulmonary emphysema and altered lung function; type: in vivo, ICR mice; conditions: oral administration once daily for 14 days, different doses (mg/kg) (FIG. 18 to 20)
Experimental: as §1, with “airway. Then,” for “airway to induce damage in the lung. Furthermore,”, “orally” for “intrarectally”

[9] = tested on: methacoline-induced airway constriction; assay: Test Example 9: rectal administration in methacoline-induced airway constriction; type: in vivo, mice; conditions: different doses (mg/kg) (FIG. 25)
Experimental: as §3, with “software. Different doses (mg/kg) of mepenzolate were administered intrarectally and airway resistance induced by methacoline was measured by a similar method to that in Test Example 4.” for “software.”

[10] = tested on: porcine pancreatic elastase-induced pulmonary emphysema and altered lung function; assay: Test Example 1: porcine pancreatic elastase-induced pulmonary emphysema and altered lung function, mepenzolate via the airway or by inhalation; type: in vivo, ICR mice; conditions: for damage in the alveolar wall: H&E sections; for mean linear intercept (MLI): PPE 100 μg per mouse
Experimental: 100 μg of porcine pancreatic elastase per mouse and different doses of mepenzolate were dissolved in 30 μL of phosphate buffered saline (PBS) per mouse and this solution was injected into the airway of a mouse anesthetized with chloral hydrate by a micropipette. A mouse was placed in a chamber. Then, the whole amount of a mepenzolate solution prepared by dissolving mepenzolate in 10 mL of PBS was sprayed onto the mouse over 30 minutes by using an ultrasonic nebulizer (NE-U07, manufactured by OMRON Corporation) that was connected to the chamber. Lung function and airway resistance were measured by using a computer-controlled small animal ventilator (FlexiVent, SCIREQ Scientific Respiratory Equipment Inc.). A mouse was anesthetized with chloral hydrate, a tracheostomy was performed, and an 8 mm metal tube was inserted into the trachea. Ventilation was performed on the mouse with a volume of 8.7 mL/kg, a positive end-expiratory pressure of 2 to 3 cmH2O, and a respiratory rate of 150 times/min. Total respiratory system elastance was measured by a snap shot technique and tissue elastance was measured by a forced oscillation technique. Data analysis was conducted by using FlexiVent software. A lung damage model for pulmonary emphysema and altered lung function was generated by administering 100 μg of porcine pancreatic elastase per mouse to 4 to 6 week old ICR mice once via the airway. Different doses of mepenzolate were administered to these mice via the airway (μg/kg) or by inhalation (μg/chamber) once daily for 14 days (Day 0 to Day 13) and the mice were euthanized on Day 14. Sections of the lung tissues were prepared and dyed with H&E (hematoxylin-eosin staining), and stained images were obtained by electron microscopy. The airspace size in the cells in the H&E stained images obtained above was measured as a mean linear intercept (MLI; μm). Then, on Day 14, the total respiratory system elastance and the tissue elastance were measured by the method described in the above-mentioned “Measurement of Elastance.”

[11] = 38 μg/kg once a day by inhalation (FIG. 17)
[12] = airway administration, Day 21 (FIG. 9)
[13] = 38 μg/kg via the airway, ELISA (FIG. 14)
[14] = different doses once via the airway 1 h before PPE, BALF 24 hours after PPE (FIG. 13)
[15] = airway administration, Day 14 (FIG. 3)
[16] = inhalation administration, Day 14 (FIG. 6)

C[N+]1(C)CCC[C@@H](OC(=O)C(O)(c2ccccc2)c2ccccc2)C1 (racemic) [mepenzolate, mepenzolate bromide]
damage in the lung induced by elastase (H&E, MLI, elastance, FEV0.05/FVC) [1]: improved damage in the lung induced by elastase
damage in the alveolar wall ([2]; 38 μg/kg once a day by inhalation): improved
mean linear intercept ([2]; 38 μg/kg once a day by inhalation (FIG. 15, 16)): suppressed
tissue elastance [2, 11]: significantly improved
total respiratory system elastance [2, 11]: significantly improved
airway resistance induced by methacoline, duration of effect ([3]; 38 μg/kg, methacoline at 6, 24 and 48 hours after administration (FIG. 12)): reduced the airway resistance even 24 hours after administration
airway resistance induced by methacoline ([3]; airway administration at 0.04, 0.08, 0.38, 3.8 and 38.0 μg/kg, one hour after administration (FIG. 11)): reduced the airway resistance almost dose-dependently
damage in the alveolar wall ([4]; airway administration once daily from 14 to 20 days after PPE treatment): improved dose-dependently
mean linear intercept ([4]; airway administration once daily from 14 to 20 days after PPE treatment (FIG. 7, 8)): suppressed
tissue elastance [4, 12]: significantly improved
total respiratory system elastance [4, 12]: significantly improved
inflammatory cells (total cell count, neutrophil count) in alveolar lavage fluid [5]: decrease in the inflammatory cells was observed
recovering effect of vital capacity represented by FEV0.05/FVC reduced by PPE administration [6]: effectively exhibited a recovering effect
KC in the BALF [7, 13]: decreased
MCP-1 in the BALF [7, 13]: decreased
MIP-2 in the BALF [7, 13]: decreased
TNF-α in the BALF [7, 13]: decreased
neutrophil count of the BALF [7, 14]: decreased dependently on the dose
total cell count of the BALF [7, 14]: decreased dependently on the dose
damage in the lung (H&E, MLI, elastance) [8]: improved damage in the lung
airway resistance induced by methacoline [9]: showed an excellent effect
damage in the alveolar wall ([10]; airway administration once daily for 14 days): improved
mean linear intercept (MLI) ([10]; airway administration once daily for 14 days, Day 14 (FIG. 1, 2)): suppressed
tissue elastance [10, 15]: significantly improved
total respiratory system elastance [10, 15]: significantly improved
damage in the alveolar wall ([10]; inhalation administration once daily for 14 days): improved
mean linear intercept (MLI) ([10]; inhalation administration once daily for 14 days, Day 14 (FIG. 4, 5)): suppressed
tissue elastance [10, 16]: significantly improved
total respiratory system elastance [10, 16]: significantly improved
suppressive effect on mean linear intercept, inhalation compared with airway administration ([10]; inhalation vs airway administration): inhalation administration had a slightly better suppressive effect

CN1CCN(CC(=O)N2c3ccccc3C(=O)Nc3cccnc32)CC1 [pirenzepine]
recovering effect of vital capacity represented by FEV0.05/FVC reduced by PPE administration [6]: did not show a significant recovering effect
